Reference: DBAASP
In brackets after ≈: the same amount, converted by molar mass. One block for each compound: values may come before it.

Assays:
Experiment in all cases: ≥ marks a high value that may be exact or a test limit, other limits are often not marked, values filed in µg/mL are converted to µM
[1] = tested on: Candida albicans ATCC 2002
[2] = tested on: Escherichia coli ATCC 25922
[3] = tested on: Staphylococcus aureus ATCC 25923
[4] = tested on: Pseudomonas aeruginosa CMCCB 10104
[5] = tested on: Shigella dysenteriae ATCC 9752
[6] = tested on: Klebsiella pneumoniae ATCC 10031
[7] = tested on: Staphylococcus aureus ATCC 6538P
[8] = tested on: Pseudomonas aeruginosa ATCC 27853
[9] = tested on: Bacillus subtilis ATCC 6633
[10] = tested on: Micrococcus luteus ATCC 10240
[11] = tested on: Staphylococcus epidermidis ATCC 12228
[12] = tested on: Salmonella enterica subsp. enterica serovar Typhimurium ATCC 14028
Bacillus cereus = tested on: Bacillus cereus
[13] = tested on: Staphylococcus aureus ATCC 2592
Pseudomonas aeruginosa = tested on: Pseudomonas aeruginosa
Shigella dysenteriae = tested on: Shigella dysenteriae
Escherichia coli K-12 = tested on: Escherichia coli K-12
[14] = tested on: Pseudomonas aeruginosa PAO1
Bacillus subtilis 168 = tested on: Bacillus subtilis 168
[15] = tested on: Staphylococcus aureus USA 300
[16] = tested on: Staphylococcus aureus ATCC 6538

MIC [1]: 1.53 µM (≈ 3.1 µg/mL)
MIC [2]: 3.05 µM (≈ 6.19 µg/mL)
MIC [3]: 3.05 µM (≈ 6.19 µg/mL)
MIC [4]: 6.1 µM (≈ 12.4 µg/mL)
Compound: CC[C@H](C)[C@H](NC(=O)CN)C(=O)N[C@@H](CC(C)C)C(=O)NCC(=O)N[C@@H](CC(N)=O)C(=O)N[C@H](C(=O)N[C@H](C(=O)NCC(=O)N[C@@H](CCSC)C(=O)NCC(=O)N[C@@H](CCCCN)C(=O)N[C@@H](CCCCN)C(=O)N[C@H](C(=O)N[C@H](C(=O)N[C@H]1CSSC[C@@H](C(=O)O)NC(=O)[C@H](CC(C)C)NC(=O)CNC(=O)[C@H](CO)NC(=O)[C@H](CC(C)C)NC(=O)CNC1=O)C(C)C)[C@@H](C)CC)C(C)C)[C@@H](C)CC [GILGNIVGMGKKIVCGLSGLC]

MIC [2]: 70.9 µM (≈ 99.9 µg/mL)
MIC [5]: ≥ 35.4 µM
MIC [6]: ≥ 142 µM
MIC [7]: ≥ 70.9 µM
MIC [8]: 142 µM (≈ 200 µg/mL)
MIC [9]: 17.7 µM (≈ 25 µg/mL)
MIC [10]: 17.7 µM (≈ 25 µg/mL)
MIC [11]: 70.9 µM (≈ 99.9 µg/mL)
MIC [12]: 142 µM (≈ 200 µg/mL)
Compound: C[C@H](NC(=O)[C@H](Cc1c[nH]c2ccccc12)NC(=O)[C@H](CCCCN)NC(=O)[C@H](C)NC(=O)[C@@H](N)Cc1ccccc1)C(=O)N[C@@H](Cc1ccccc1)C(=O)N[C@@H](CCCCN)C(=O)N[C@@H](Cc1c[nH]c2ccccc12)C(=O)N[C@@H](C)C(=O)N[C@@H](CCCCN)C(=O)N[C@@H](CCCCN)C(N)=O [FAKWAFKWAKK]

MIC [1]: 4.32 µM (≈ 8.59 µg/mL)
MIC [2]: 4.32 µM (≈ 8.59 µg/mL)
MIC [3]: 4.32 µM (≈ 8.59 µg/mL)
MIC [4]: 8.64 µM (≈ 17.2 µg/mL)
Compound: CC[C@H](C)[C@H](NC(=O)CNC(=O)[C@H](CO)NC(=O)[C@H](CC(C)C)NC(=O)[C@@H](NC(=O)CN)[C@@H](C)CC)C(=O)N[C@@H](CC(C)C)C(=O)NCC(=O)N[C@H](C(=O)NCC(=O)N[C@@H](CCCCN)C(=O)N[C@@H](CCSC)C(=O)N[C@@H](CC(C)C)C(=O)N[C@H](C(=O)N[C@H]1CSSC[C@@H](C(=O)O)NC(=O)[C@H](CC(C)C)NC(=O)CNC(=O)[C@H](CO)NC(=O)[C@H](CC(C)C)NC(=O)CNC1=O)C(C)C)C(C)C [GILSGILGVGKMLVCGLSGLC]

MIC [1]: ≥ 85 µM
MIC [2]: > 85 µM
MIC [3]: > 85 µM
MIC [4]: ≥ 85 µM
Compound: CC[C@H](C)[C@H](NC(=O)[C@H](Cc1ccccc1)NC(=O)[C@H](CCCCN)NC(=O)[C@H](CC(=O)O)NC(=O)[C@@H](NC(=O)[C@H](CC(C)C)NC(=O)[C@H](CC(=O)O)NC(=O)[C@H](CCC(=O)O)NC(=O)[C@H](C)NC(=O)[C@H](CC(=O)O)NC(=O)[C@H](CCC(=O)O)NC(=O)CNC(=O)[C@H](CC(N)=O)NC(=O)[C@H](CCC(=O)O)NC(=O)[C@@H](NC(=O)[C@H](CC(N)=O)NC(=O)[C@H](C)NC(=O)[C@@H](N)CC(=O)O)C(C)C)[C@@H](C)O)C(=O)NCC(=O)N[C@@H](CC(C)C)C(=O)N[C@@H](CCSC)C(=O)NCC(=O)O [DANVENGEDAEDLTDKFIGLMG]

MIC [1]: ≥ 48 µM
MIC (Bacillus cereus): 8.01 µM (≈ 11 µg/mL)
MIC [13]: 4 µM (≈ 5.5 µg/mL)
MIC (Pseudomonas aeruginosa): 4 µM (≈ 5.5 µg/mL)
MIC [2]: 32 µM (≈ 44 µg/mL)
MIC [9]: 4 µM (≈ 5.5 µg/mL)
MIC (Shigella dysenteriae): 2 µM (≈ 2.75 µg/mL)
Compound: CC[C@H](C)[C@H](NC(=O)CN)C(=O)N[C@@H](CC(C)C)C(=O)N[C@@H](CC(=O)O)C(=O)N[C@@H](C)C(=O)N[C@H](C(=O)N[C@@H](CCCCN)C(=O)N[C@@H](C)C(=O)N[C@@H](Cc1ccccc1)C(=O)N[C@@H](C)C(=O)N[C@@H](CC(N)=O)C(=O)N[C@@H](C)C(=O)N[C@@H](CC(C)C)C(=O)NCC(N)=O)[C@@H](C)CC [GILDAIKAFANALG]

MIC (Escherichia coli K-12): 3.1 µM (≈ 5.38 µg/mL)
MIC [14]: 6.25 µM (≈ 10.9 µg/mL)
MIC (Bacillus subtilis 168): 12.5 µM (≈ 21.7 µg/mL)
MIC [15]: 6.2 µM (≈ 10.8 µg/mL)
Compound: CC[C@H](C)[C@H](N)C(=O)N[C@@H](CCCCN)C(=O)N[C@@H](Cc1c[nH]c2ccccc12)C(=O)N[C@@H](CCCCN)C(=O)N[C@@H](CCCCN)C(=O)N[C@@H](CC(C)C)C(=O)N[C@@H](CC(C)C)C(=O)N[C@@H](CCCN=C(N)N)C(=O)N[C@@H](C)C(=O)N[C@@H](C)C(=O)N[C@@H](CCCCN)C(=O)N[C@@H](CCCN=C(N)N)C(=O)N[C@H](C(=O)N[C@@H](CC(C)C)C(N)=O)[C@@H](C)CC [IKWKKLLRAAKRIL]

MIC [1]: 3.35 µM (≈ 8.59 µg/mL)
MIC [2]: 3.35 µM (≈ 8.59 µg/mL)
MIC [3]: 3.35 µM (≈ 8.59 µg/mL)
MIC [4]: 3.35 µM (≈ 8.59 µg/mL)
Compound: CC[C@H](C)[C@H](N)C(=O)N[C@@H](CC(N)=O)C(=O)N1CCC[C@H]1C(=O)N[C@@H](Cc1ccccc1)C(=O)N[C@H](C(=O)N[C@@H](C)C(=O)NCC(=O)N[C@H](C(=O)N[C@@H](C)C(=O)N[C@@H](C)C(=O)N[C@@H](CCC(=O)O)C(=O)N[C@@H](CCSC)C(=O)N[C@@H](CCSC)C(=O)N[C@@H](CCC(N)=O)C(=O)N[C@@H](Cc1cnc[nH]1)C(=O)N[C@H](C(=O)N[C@@H](Cc1ccc(O)cc1)C(=O)N[C@H]1CSSC[C@@H](C(=O)O)NC(=O)[C@H](CCCCN)NC(=O)[C@H](CCCCN)NC(=O)[C@H](CO)NC(=O)[C@H](C)NC(=O)[C@H](C)NC1=O)C(C)C)C(C)C)C(C)C [INPFVAGVAAEMMQHVYCAASKKC]

MIC [2]: 96 µM (≈ 99.9 µg/mL)
MIC [5]: ≥ 192 µM
MIC [6]: ≥ 192 µM
MIC [7]: 24 µM (≈ 25 µg/mL)
MIC [8]: 48 µM (≈ 50 µg/mL)
MIC [9]: ≥ 48 µM
MIC [10]: ≥ 96 µM
MIC [11]: 96 µM (≈ 99.9 µg/mL)
MIC [12]: > 192 µM
Compound: CC(C)C[C@H](NC(=O)[C@H](CCCCN)NC(=O)[C@H](CCCCN)NC(=O)[C@H](CC(C)C)NC(=O)[C@H](Cc1c[nH]c2ccccc12)NC(=O)[C@H](CCCCN)NC(=O)[C@H](CC(C)C)NC(=O)[C@@H](N)CC(C)C)C(N)=O [LLKWLKKL]

MIC (Escherichia coli K-12): 30 µM (≈ 48.8 µg/mL)
Compound: CC[C@H](C)[C@H](NC(=O)[C@H](CCCN=C(N)N)NC(=O)[C@H](CCC(N)=O)NC(=O)[C@@H](NC(=O)[C@@H](NC(=O)[C@H](CCCN=C(N)N)NC(=O)[C@@H](N)CCCN=C(N)N)[C@@H](C)CC)C(C)C)C(=O)N[C@@H](CCCN=C(N)N)C(=O)N[C@@H](CC(=O)O)C(=O)N[C@@H](Cc1ccccc1)C(=O)N[C@@H](CC(C)C)C(=O)N[C@@H](CCCN=C(N)N)C(N)=O [RRIVQRIRDFLR]

MIC (Escherichia coli K-12): 3 µM (≈ 7.97 µg/mL)
MIC [16]: > 25 µM
MIC [8]: > 6 µM
Compound: CC[C@H](C)[C@H](NC(=O)[C@H](CCSC)NC(=O)[C@H](CCCCN)NC(=O)[C@H](CCC(=O)O)NC(=O)[C@H](C)NC(=O)[C@H](CCCCN)NC(=O)[C@H](CCCCN)NC(=O)[C@H](Cc1ccccc1)NC(=O)[C@@H](NC(=O)[C@H](CCCCN)NC(=O)[C@H](Cc1c[nH]c2ccccc12)NC(=O)[C@@H](N)CCCCN)C(C)C)C(=O)N[C@@H](CCCN=C(N)N)C(=O)N[C@@H](CC(N)=O)C(=O)N[C@H](C(=O)N[C@@H](CCCN=C(N)N)C(=O)N[C@@H](CC(N)=O)C(=O)N[C@@H](CCCCN)C(=O)N[C@H](C(=O)N[C@H](C(=O)N[C@@H](CCCCN)C(N)=O)C(C)C)[C@@H](C)CC)[C@@H](C)CC [KWKVFKKAEKMIRNIRNKIVK]

MIC [1]: 13.7 µM (≈ 30 µg/mL)
MIC [13]: 6.86 µM (≈ 15 µg/mL)
MIC [2]: > 45.7 µM
MIC (Shigella dysenteriae): 27.4 µM (≈ 60 µg/mL)
Compound: CC(C)C[C@H](NC(=O)[C@H](CCC(N)=O)NC(=O)[C@H](CCCCN)NC(=O)[C@H](Cc1ccc(O)cc1)NC(=O)[C@@H]1CCCN1C(=O)[C@H](CCC(N)=O)NC(=O)[C@H](C)NC(=O)[C@H](CO)NC(=O)CN)C(=O)N[C@@H](Cc1cnc[nH]1)C(=O)N[C@@H](CCCCN)C(=O)N[C@H](C(=O)N[C@H](C(=O)N[C@@H](CC(N)=O)C(=O)N[C@@H](Cc1c[nH]c2ccccc12)C(=O)N[C@@H](CC(=O)O)C(=O)N1CCC[C@H]1C(=O)N[C@@H](Cc1ccc(O)cc1)C(=O)NCC(=O)O)C(C)C)C(C)C [GSAQPYKQLHKVVNWDPYG]

MIC (Escherichia coli K-12): ≥ 100 µM
MIC [15]: ≥ 100 µM
Compound: CC[C@H](C)[C@H](NC(=O)[C@@H]1CCCN1C(=O)[C@H](Cc1cnc[nH]1)NC(=O)[C@H](CCCCN)NC(=O)[C@@H]1CCCN1C(=O)[C@@H](N)CCCNC(=N)N)C(=O)N[C@@H](CCCCN)C(=O)N[C@@H](Cc1cnc[nH]1)C(=O)N[C@@H](CCC(N)=O)C(=O)NCC(=O)N[C@@H](CC(C)C)C(=O)N1CCC[C@H]1C(=O)N[C@@H](CCC(N)=O)C(=O)N[C@@H](CCC(=O)O)C(=O)N[C@H](C(=O)N[C@@H](CC(C)C)C(=O)N[C@@H](CC(N)=O)C(=O)N[C@@H](CCC(=O)O)C(=O)N[C@@H](CC(N)=O)C(=O)N[C@@H](CC(C)C)C(=O)N[C@@H](CC(C)C)C(=O)N[C@@H](CCCNC(=N)N)C(=O)N[C@@H](Cc1ccccc1)C(=O)O)C(C)C [RPKHPIKHQGLPQEVLNENLLRF]
